The first assay addresses T1, IRAK4 (Homo sapiens, UniProt Q9NWZ3).
T1 construct: endogenous in cells; host or cells: OCI-LY10
T1 sequence (Q9NWZ3 1-460): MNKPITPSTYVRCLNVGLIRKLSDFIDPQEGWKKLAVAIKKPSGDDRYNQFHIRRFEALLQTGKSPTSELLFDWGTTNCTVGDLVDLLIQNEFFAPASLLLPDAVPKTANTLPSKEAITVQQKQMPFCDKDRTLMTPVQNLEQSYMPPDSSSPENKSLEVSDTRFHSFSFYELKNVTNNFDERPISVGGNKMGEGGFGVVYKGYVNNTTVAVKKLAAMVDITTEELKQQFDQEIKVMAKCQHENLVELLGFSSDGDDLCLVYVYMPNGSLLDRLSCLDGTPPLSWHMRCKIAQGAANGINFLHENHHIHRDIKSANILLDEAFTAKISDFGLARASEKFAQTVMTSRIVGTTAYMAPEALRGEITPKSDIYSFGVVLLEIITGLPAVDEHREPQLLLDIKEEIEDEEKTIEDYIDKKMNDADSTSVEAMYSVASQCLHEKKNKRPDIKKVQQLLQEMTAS
Briefly: IRAK4 MSD Degradation in OCI-LY10. The format is cell-based. As to conditions: OCI-LY10 cells, 4 hrs incubation, read-out: IRAK4 degradation in OCI-LY10 at 4 hrs: DC50. The method in brief:
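IRAK4 remaining in lysates was read by Meso Scale electrochemiluminescence sandwich (2H9 capture, Y279 plus SULFO-TAG detection). Cells were exposed 4 to 24 h at 37 °C to eight 3-fold dilutions from 1 to 10 μM final top; three-parameter logistic fit gave DC50.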
With `CN(C[C@H]1CC[C@H](n2cc3cc(NC(=O)c4cccc(C(C)(C)C)n4)c(C(C)(C)O)cc3n2)CC1)C1CCN(Cc2cccc3c2n(C)c(=O)n3C2CCC(=O)NC2=O)CC1` (stereo partly shown) [I-235], the DC50 was under 50 nM.

With `Cn1c(=O)n(C2CCC(=O)NC2=O)c2cccc(CCN3CC4(CCN(C(=O)[C@H]5CC[C@H](n6cc7cc(NC(=O)c8cccc(C(F)(F)F)n8)c(C(C)(C)O)cc7n6)CC5)CC4)C3)c21` (stereo partly shown) [I-239], the DC50 was under 50 nM.

Turning to `COc1cc2nn([C@H]3CC[C@H](CN4CCC(CCc5cccc6c5n(C)c(=O)n6C5CCC(=O)NC5=O)CC4)CC3)cc2cc1NC(=O)c1cccc(C(F)(F)F)n1` (stereo partly shown) [I-242], the DC50 is under 50 nM.

Consider `COc1cc2nn([C@H]3CC[C@H](CN4CCC(c5cccc6c5n(C)c(=O)n6C5CCC(=O)N(C)C5=O)CC4)CC3)cc2cc1NC(=O)c1cccc(C(F)(F)F)n1` (stereo partly shown) [I-257], for which the DC50 fell in the range of 500 to 1000 nM.

As for `COc1cc2nn([C@H]3CC[C@H](CN4CCC(c5cccc6c5n(C)c(=O)n6C5CCC(=O)NC5=O)CC4)CC3)cc2cc1NC(=O)c1cccc(C(C)(C)O)n1` (stereo partly shown) [I-258], the DC50 is under 50 nM.

`COc1cc2nn([C@H]3CC[C@H](CN4CCC5(CC4)CC(CCc4cccc6c4n(C)c(=O)n6C4CCC(=O)NC4=O)C5)CC3)cc2cc1NC(=O)c1cccc(C(F)(F)F)n1` (stereo partly shown) [I-259]: the DC50 lay in the range of 50 to 100 nM.

For `COc1cc2nn([C@H]3CC[C@H](CN4CC(c5ccc6c(c5)n(C)c(=O)n6C5CCC(=O)NC5=O)C4)CC3)cc2cc1NC(=O)c1cccc(C(F)(F)F)n1` (stereo partly shown) [I-260], the DC50 is under 50 nM.

As for `Cn1c(=O)n(C2CCC(=O)NC2=O)c2ccc(C3CCN(C[C@H]4CC[C@H](n5cc6cc(NC(=O)c7cccc(C(F)(F)F)n7)c(C(F)F)cc6n5)CC4)CC3)cc21` (stereo partly shown) [I-261], the DC50 was under 50 nM.

Regarding `COc1cc2nn([C@H]3CC[C@H](CN4CCC(c5ccc6c(c5)n(C)c(=O)n6C5CCC(=O)NC5=O)CC4)CC3)cc2cc1NC(=O)c1cccc(C(F)(F)F)n1` (stereo partly shown) [I-262], the DC50 was under 50 nM.

As for `Cn1c(=O)n(C2CCC(=O)NC2=O)c2cccc(C3CCN(C[C@H]4CC[C@H](n5cc6cc(NC(=O)c7cccc(C(F)(F)F)n7)c(C(F)F)cc6n5)CC4)CC3)c21` (stereo partly shown) [I-263], the DC50 is under 50 nM.

Take `Cn1c(=O)n(C2CCC(=O)NC2=O)c2ccc(C3CN(C[C@H]4CC[C@H](n5cc6cc(NC(=O)c7cccc(C(F)(F)F)n7)c(C(F)F)cc6n5)CC4)C3)cc21` (stereo partly shown) [I-264]: the DC50 is under 50 nM.

For the compound `Cn1c(=O)n(C2CCC(=O)NC2=O)c2cccc(CCC3CCN(C[C@H]4CC[C@H](n5cc6cc(NC(=O)c7cccc(C(F)(F)F)n7)c(C(C)(C)O)cc6n5)CC4)CC3)c21` (stereo partly shown) [I-265], the DC50 was under 50 nM.

As to `Cn1c(=O)n(C2CCC(=O)NC2=O)c2cccc(CCOC3CCN(C[C@H]4CC[C@H](n5cc6cc(NC(=O)c7cccc(C(F)(F)F)n7)c(C(F)F)cc6n5)CC4)CC3)c21` (stereo partly shown) [I-266], the DC50 was in the range of 50 to 100 nM.

As for `Cn1c(=O)n(C2CCC(=O)NC2=O)c2cccc(CCOC3CCN(C[C@H]4CC[C@H](n5cc6cc(NC(=O)c7cccc(C(F)(F)F)n7)c(C(C)(C)O)cc6n5)CC4)CC3)c21` (stereo partly shown) [I-267], the DC50 was under 50 nM.

For the compound `Cc1cccc(C(=O)Nc2cc3cn([C@H]4CC[C@H](CN5CCC6(CC5)CC(CCc5cccc7c5n(C)c(=O)n7C5CCC(=O)NC5=O)C6)CC4)nc3cc2C(C)(C)O)n1` (stereo partly shown) [I-276], the DC50 was under 50 nM.

For the compound `Cn1c(=O)n(C2CCC(=O)NC2=O)c2cccc(CCC3CC4(CCN(C[C@H]5CC[C@H](n6cc7cc(NC(=O)c8ccccn8)c(C(F)F)cc7n6)CC5)CC4)C3)c21` (stereo partly shown) [I-277], the DC50 was under 50 nM.

As for `CN(C[C@H]1CC[C@H](n2cc3cc(NC(=O)c4cccc(C(F)(F)F)n4)c(C(F)F)cc3n2)CC1)C1CCC2(CC1)CC(Cc1cccc3c1n(C)c(=O)n3C1CCC(=O)NC1=O)C2` (stereo partly shown) [I-278], the DC50 lay within 50 to 100 nM.

Consider `CN(C[C@H]1CC[C@H](n2cc3cc(NC(=O)c4cccc(C(F)(F)F)n4)c(C(C)(C)O)cc3n2)CC1)C1CCN(Cc2ccc3c(c2)C(=O)N(C)C3C2CCC(=O)NC2=O)CC1` (stereo partly shown) [I-279], for which the DC50 was under 50 nM.

Regarding `COc1cc2nn([C@H]3CC[C@H](CN4C[C@H]5C[C@@H]4CN5c4cccc5c4n(C)c(=O)n5C4CCC(=O)NC4=O)CC3)cc2cc1NC(=O)c1cccc(C(F)(F)F)n1` (stereo partly shown) [I-281], the DC50 is under 50 nM.

Regarding `Cn1c(=O)n(C2CCC(=O)NC2=O)c2cccc(N3C[C@H]4C[C@@H]3CN4C[C@H]3CC[C@H](n4cc5cc(NC(=O)c6cccc(C(F)(F)F)n6)c(C(C)(C)O)cc5n4)CC3)c21` (stereo partly shown) [I-282], the DC50 was under 50 nM.

For the compound `COc1cc2nn([C@H]3CC[C@H](CN(C)C4CCN(c5cccc6c5n(C)c(=O)n6C5CCC(=O)N(C)C5=O)CC4)CC3)cc2cc1NC(=O)c1cccc(C(F)(F)F)n1` (stereo partly shown) [I-283], the DC50 was in the range of 500 to 1000 nM.

Still in this assay, the particulars now being: OCI-LY10 cells, 24 hrs incubation, read-out: IRAK4 degradation in OCI-LY10 at 24 hrs: DC50.
For the compound `COc1cc2nn([C@H]3CC[C@H](CN(C)CCCO[C@H]4C[C@H](Nc5cccc6c5C(=O)N(C5CCC(=O)NC5=O)C6=O)C4)CC3)cc2cc1NC(=O)c1cccc(C(F)(F)F)n1` (stereo partly shown) [I-230], the DC50 lay in the range of 50 to 100 nM.

Regarding `COc1cc2nn([C@H]3CC[C@H](CN4CCC(COCCCNc5cccc6c5C(=O)N(C5CCC(=O)NC5=O)C6=O)CC4)CC3)cc2cc1NC(=O)c1cccc(C(C)(C)F)n1` (stereo partly shown) [I-231], the DC50 lay within 50 to 100 nM.

For the compound `COc1cc2nn([C@H]3CC[C@H](CN4CCC5(CC4)CC(CNc4cccc6c4C(=O)N(C4CCC(=O)NC4=O)C6=O)C5)CC3)cc2cc1NC(=O)c1cccc(C(C)(C)F)n1` (stereo partly shown) [I-232], the DC50 fell in the range of 50 to 100 nM.

On to `CC(C)(O)c1cc2nn([C@H]3CC[C@H](CN4CCO[C@@H](CCCNc5cccc6c5C(=O)N(C5CCC(=O)NC5=O)C6=O)C4)CC3)cc2cc1NC(=O)c1cccc(C(F)(F)F)n1` (stereo partly shown) [I-233], for which the DC50 was under 50 nM.

As for `CC(C)(O)c1cc2nn([C@H]3CC[C@H](CN4CCC(O[C@H]5C[C@H](Nc6cccc7c6C(=O)N(C6CCC(=O)NC6=O)C7=O)C5)CC4)CC3)cc2cc1NC(=O)c1cccc(C(C)(C)F)n1` (stereo partly shown) [I-234], the DC50 is 50 to 100 nM.

Regarding `CN(C[C@H]1CC[C@H](n2cc3cc(NC(=O)c4cccc(C(C)(C)C)n4)c(C(C)(C)O)cc3n2)CC1)[C@H]1CC[C@H](Nc2cccc3c2C(=O)N(C2CCC(=O)NC2=O)C3=O)CC1` (stereo partly shown) [I-236], the DC50 fell in the range of 50 to 100 nM.

For `CN(C[C@H]1CC[C@H](n2cc3cc(NC(=O)c4cccc(C(F)(F)F)n4)c(C(C)(C)O)cc3n2)CC1)C1CCC2(CC1)CC(Nc1cccc3c1C(=O)N(C1CCC(=O)NC1=O)C3=O)C2` (stereo partly shown) [I-238], the half-maximal degradation concentration (DC50) is under 50 nM.

In the case of `CC(C)(C)c1cccc(C(=O)Nc2cc3cn([C@H]4CC[C@H](CN5CCC6(CC5)CC(Nc5cccc7c5C(=O)N(C5CCC(=O)NC5=O)C7=O)C6)CC4)nc3cc2C(C)(C)O)n1` (stereo partly shown) [I-249], the DC50 was in the range of 50 to 100 nM.

Regarding `CC(C)(O)c1cc2nn([C@H]3CC[C@H](CN4CCC5(CC4)CC(CCNc4cccc6c4C(=O)N(C4CCC(=O)NC4=O)C6=O)C5)CC3)cc2cc1NC(=O)c1cccc(C(C)(F)F)n1` (stereo partly shown) [I-250], the DC50 lay in the range of 50 to 100 nM.

Consider `CC(C)(O)c1cc2nn([C@H]3CC[C@H](CN4CCC5(CC4)CC(CNc4cccc6c4C(=O)N(C4CCC(=O)NC4=O)C6=O)C5)CC3)cc2cc1NC(=O)c1cccc(C(C)(C)F)n1` (stereo partly shown) [I-251], for which the DC50 lay in the range of 50 to 100 nM.

Regarding `COc1cc2nn([C@H]3CC[C@H](CN4CC5(CC(CCNc6cccc7c6C(=O)N([C@@H]6CCC(=O)NC6=O)C7=O)C5)C4)CC3)cc2cc1NC(=O)c1cccc(C(C)(F)F)n1` [I-254, 6-(1,1-Difluoroethyl)-N-[2-[4-[[6-[2-[[2-[(3R)-2,6-dioxo-3-piperidyl]-1,3-dioxo-isoindolin-4-yl]amino]ethyl]-2-azaspiro[3.3]heptan-2-yl]methyl]cyclohexyl]-6-methoxy-indazol-5-yl]pyridine-2-carboxamide], the DC50 is under 50 nM.

With `COc1cc2nn([C@H]3CC[C@H](CN4CC5(CC(CCNc6cccc7c6C(=O)N([C@H]6CCC(=O)NC6=O)C7=O)C5)C4)CC3)cc2cc1NC(=O)c1cccc(C(C)(F)F)n1` [I-255, 6-(1,1-Difluoroethyl)-N-[2-[4-[[6-[2-[[2-[(3S)-2,6-dioxo-3-piperidyl]-1,3-dioxo-isoindolin-4-yl]amino]ethyl]-2-azaspiro[3.3]heptan-2-yl]methyl]cyclohexyl]-6-methoxy-indazol-5-yl]pyridine-2-carboxamide], the DC50 was under 50 nM.

As for `CN(CCCO[C@H]1C[C@H](Nc2cccc3c2C(=O)N(C2CCC(=O)NC2=O)C3=O)C1)C[C@@]1(C)Cc2cc(NC(=O)c3cccc(C(F)(F)F)n3)c(N3CCOCC3)cc2O1` (stereo partly drawn) [I-256, N-((2R)-2-(((3-((1r,3R)-3-((2-(2,6-Dioxopiperidin-3-yl)-1,3-dioxoisoindolin-4-yl)amino)cyclobutoxy)propyl)(methyl)amino)methyl)-2-methyl-6-morpholino-2,3-dihydrobenzofuran-5-yl)-6-(trifluoromethyl)picolinamide], the DC50 was in the range of 500 to 1000 nM.

With `COc1cc2nn([C@H]3CC[C@H](CN(C)[C@H]4CC[C@H](CNc5cccc6c5C(=O)N(C5CCC(=O)NC5=O)C6=O)CC4)CC3)cc2cc1NC(=O)c1cccc(C)n1` (stereo partly shown) [I-268], the DC50 lay in the range of 50 to 100 nM.

As for `COc1cc2nn([C@H]3CC[C@H](CN4CCC5(CC4)CC(CNc4cccc6c4C(=O)N(C4CCC(=O)NC4=O)C6=O)C5)CC3)cc2cc1NC(=O)c1ccccn1` (stereo partly shown) [I-273], the DC50 lay in the range of 50 to 100 nM.

On to `COc1cc2nn([C@H]3CC[C@H](CN4CC5(CC(CNc6cccc7c6C(=O)N(C6CCC(=O)NC6=O)C7=O)C5)C4)CC3)cc2cc1NC(=O)c1cccc(C(F)(F)F)n1` (stereo partly shown) [I-274], for which the DC50 was 50 to 100 nM.

The record behind these values is US12545659B2, “IRAK degraders and uses thereof” (Kymera Therapeutics, Inc., priority 2019, dated 2026).
